Values of other authors as cited in patent publication US20100120907A1, “DERIVATIVES OF AMYRIS ALCOHOLS AND EUDESMOL FOR TREATING COLD SORES AND HERPES” (priority 2007, published 2010).

Tests used:
[1] = tested on: cold sores; conditions: topical cream
[2] = target: omega-agatoxin IVA-sensitive (P/Q-type) Ca^2+ channel (Rattus norvegicus, UniProt P54282)
[3] = tested on: neurogenic inflammation; conditions: following electrical stimulation of rat trigeminal ganglion
[4] = tested on: PC-12 cells
[5] = tested on: Na^+, K(+)-ATPase; conditions: among the various kinds of phosphatases examined
[6] = tested on: angiogenesis; conditions: mice
[7] = target: nicotinic ACh receptor channel (Homo sapiens, UniProt P02708+P11230+Q04844+Q07001)
Sequence of nicotinic ACh receptor channel (P02708 21-457): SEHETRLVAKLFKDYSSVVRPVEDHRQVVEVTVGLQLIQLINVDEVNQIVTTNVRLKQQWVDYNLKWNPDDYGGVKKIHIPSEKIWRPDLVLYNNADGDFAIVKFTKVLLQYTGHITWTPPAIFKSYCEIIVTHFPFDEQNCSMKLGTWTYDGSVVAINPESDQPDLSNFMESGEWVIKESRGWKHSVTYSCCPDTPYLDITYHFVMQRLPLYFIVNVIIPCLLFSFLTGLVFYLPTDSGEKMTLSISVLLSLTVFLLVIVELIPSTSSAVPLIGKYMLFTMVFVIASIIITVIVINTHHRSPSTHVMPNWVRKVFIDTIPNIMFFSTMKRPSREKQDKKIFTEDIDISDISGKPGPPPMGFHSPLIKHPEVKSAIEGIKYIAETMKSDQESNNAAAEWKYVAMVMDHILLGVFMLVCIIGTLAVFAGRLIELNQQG
Sequence of nicotinic ACh receptor channel (P11230 24-501): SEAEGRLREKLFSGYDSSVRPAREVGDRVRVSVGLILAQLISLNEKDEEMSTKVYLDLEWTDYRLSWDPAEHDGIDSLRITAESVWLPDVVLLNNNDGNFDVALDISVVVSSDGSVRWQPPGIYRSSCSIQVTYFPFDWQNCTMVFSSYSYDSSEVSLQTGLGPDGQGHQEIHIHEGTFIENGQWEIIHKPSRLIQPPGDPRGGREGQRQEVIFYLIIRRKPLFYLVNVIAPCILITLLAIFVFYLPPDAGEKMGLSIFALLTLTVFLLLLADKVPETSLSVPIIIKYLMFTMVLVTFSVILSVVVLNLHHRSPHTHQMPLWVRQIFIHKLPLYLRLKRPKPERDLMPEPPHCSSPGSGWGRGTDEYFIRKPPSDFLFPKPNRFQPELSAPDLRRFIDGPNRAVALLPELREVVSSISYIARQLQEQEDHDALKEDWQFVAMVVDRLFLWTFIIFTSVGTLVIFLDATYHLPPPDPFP
Sequence of nicotinic ACh receptor channel (Q07001 22-517): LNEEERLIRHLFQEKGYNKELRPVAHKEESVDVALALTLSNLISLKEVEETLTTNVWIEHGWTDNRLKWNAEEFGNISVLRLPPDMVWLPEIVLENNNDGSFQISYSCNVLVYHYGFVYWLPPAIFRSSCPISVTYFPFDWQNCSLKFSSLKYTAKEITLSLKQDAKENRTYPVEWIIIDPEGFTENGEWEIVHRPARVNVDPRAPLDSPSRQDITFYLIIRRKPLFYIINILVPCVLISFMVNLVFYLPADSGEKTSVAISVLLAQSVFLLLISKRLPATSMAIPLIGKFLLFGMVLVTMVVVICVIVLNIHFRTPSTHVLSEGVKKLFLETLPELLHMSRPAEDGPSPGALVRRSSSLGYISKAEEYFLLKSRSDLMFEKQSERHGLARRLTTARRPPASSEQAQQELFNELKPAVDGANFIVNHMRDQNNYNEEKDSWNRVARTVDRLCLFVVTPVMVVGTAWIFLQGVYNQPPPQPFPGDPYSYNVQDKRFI
Sequence of nicotinic ACh receptor channel (Q04844 21-493): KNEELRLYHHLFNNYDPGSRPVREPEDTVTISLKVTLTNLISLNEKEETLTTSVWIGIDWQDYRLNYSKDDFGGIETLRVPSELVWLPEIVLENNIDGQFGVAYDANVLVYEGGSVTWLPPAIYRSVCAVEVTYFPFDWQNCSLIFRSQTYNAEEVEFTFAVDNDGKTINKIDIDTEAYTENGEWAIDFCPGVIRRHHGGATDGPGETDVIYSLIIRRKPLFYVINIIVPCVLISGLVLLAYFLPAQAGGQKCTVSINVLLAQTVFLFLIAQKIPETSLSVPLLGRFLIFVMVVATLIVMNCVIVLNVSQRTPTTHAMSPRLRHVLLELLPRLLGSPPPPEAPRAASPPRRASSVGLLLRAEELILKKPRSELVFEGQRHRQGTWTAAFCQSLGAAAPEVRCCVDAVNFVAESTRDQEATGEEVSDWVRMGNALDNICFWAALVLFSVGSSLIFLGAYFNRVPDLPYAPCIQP

[8] = tested on: human umbilical vein endothelial cells (HUVEC)
[9] = tested on: extracellular signal-regulated kinase (ERK) ½; conditions: 100 microM
[10] = tested on: porcine brain microvascular endothelial cells; conditions: 50-100 microM
[11] = tested on: skin papillomas; conditions: DMBA-initiated, TPA-promoted, mice
[12] = tested on: ornithine decarboxylase (ODC); conditions: mice

Sequence of omega-agatoxin IVA-sensitive (P/Q-type) Ca^2+ channel (P54282 whole entry): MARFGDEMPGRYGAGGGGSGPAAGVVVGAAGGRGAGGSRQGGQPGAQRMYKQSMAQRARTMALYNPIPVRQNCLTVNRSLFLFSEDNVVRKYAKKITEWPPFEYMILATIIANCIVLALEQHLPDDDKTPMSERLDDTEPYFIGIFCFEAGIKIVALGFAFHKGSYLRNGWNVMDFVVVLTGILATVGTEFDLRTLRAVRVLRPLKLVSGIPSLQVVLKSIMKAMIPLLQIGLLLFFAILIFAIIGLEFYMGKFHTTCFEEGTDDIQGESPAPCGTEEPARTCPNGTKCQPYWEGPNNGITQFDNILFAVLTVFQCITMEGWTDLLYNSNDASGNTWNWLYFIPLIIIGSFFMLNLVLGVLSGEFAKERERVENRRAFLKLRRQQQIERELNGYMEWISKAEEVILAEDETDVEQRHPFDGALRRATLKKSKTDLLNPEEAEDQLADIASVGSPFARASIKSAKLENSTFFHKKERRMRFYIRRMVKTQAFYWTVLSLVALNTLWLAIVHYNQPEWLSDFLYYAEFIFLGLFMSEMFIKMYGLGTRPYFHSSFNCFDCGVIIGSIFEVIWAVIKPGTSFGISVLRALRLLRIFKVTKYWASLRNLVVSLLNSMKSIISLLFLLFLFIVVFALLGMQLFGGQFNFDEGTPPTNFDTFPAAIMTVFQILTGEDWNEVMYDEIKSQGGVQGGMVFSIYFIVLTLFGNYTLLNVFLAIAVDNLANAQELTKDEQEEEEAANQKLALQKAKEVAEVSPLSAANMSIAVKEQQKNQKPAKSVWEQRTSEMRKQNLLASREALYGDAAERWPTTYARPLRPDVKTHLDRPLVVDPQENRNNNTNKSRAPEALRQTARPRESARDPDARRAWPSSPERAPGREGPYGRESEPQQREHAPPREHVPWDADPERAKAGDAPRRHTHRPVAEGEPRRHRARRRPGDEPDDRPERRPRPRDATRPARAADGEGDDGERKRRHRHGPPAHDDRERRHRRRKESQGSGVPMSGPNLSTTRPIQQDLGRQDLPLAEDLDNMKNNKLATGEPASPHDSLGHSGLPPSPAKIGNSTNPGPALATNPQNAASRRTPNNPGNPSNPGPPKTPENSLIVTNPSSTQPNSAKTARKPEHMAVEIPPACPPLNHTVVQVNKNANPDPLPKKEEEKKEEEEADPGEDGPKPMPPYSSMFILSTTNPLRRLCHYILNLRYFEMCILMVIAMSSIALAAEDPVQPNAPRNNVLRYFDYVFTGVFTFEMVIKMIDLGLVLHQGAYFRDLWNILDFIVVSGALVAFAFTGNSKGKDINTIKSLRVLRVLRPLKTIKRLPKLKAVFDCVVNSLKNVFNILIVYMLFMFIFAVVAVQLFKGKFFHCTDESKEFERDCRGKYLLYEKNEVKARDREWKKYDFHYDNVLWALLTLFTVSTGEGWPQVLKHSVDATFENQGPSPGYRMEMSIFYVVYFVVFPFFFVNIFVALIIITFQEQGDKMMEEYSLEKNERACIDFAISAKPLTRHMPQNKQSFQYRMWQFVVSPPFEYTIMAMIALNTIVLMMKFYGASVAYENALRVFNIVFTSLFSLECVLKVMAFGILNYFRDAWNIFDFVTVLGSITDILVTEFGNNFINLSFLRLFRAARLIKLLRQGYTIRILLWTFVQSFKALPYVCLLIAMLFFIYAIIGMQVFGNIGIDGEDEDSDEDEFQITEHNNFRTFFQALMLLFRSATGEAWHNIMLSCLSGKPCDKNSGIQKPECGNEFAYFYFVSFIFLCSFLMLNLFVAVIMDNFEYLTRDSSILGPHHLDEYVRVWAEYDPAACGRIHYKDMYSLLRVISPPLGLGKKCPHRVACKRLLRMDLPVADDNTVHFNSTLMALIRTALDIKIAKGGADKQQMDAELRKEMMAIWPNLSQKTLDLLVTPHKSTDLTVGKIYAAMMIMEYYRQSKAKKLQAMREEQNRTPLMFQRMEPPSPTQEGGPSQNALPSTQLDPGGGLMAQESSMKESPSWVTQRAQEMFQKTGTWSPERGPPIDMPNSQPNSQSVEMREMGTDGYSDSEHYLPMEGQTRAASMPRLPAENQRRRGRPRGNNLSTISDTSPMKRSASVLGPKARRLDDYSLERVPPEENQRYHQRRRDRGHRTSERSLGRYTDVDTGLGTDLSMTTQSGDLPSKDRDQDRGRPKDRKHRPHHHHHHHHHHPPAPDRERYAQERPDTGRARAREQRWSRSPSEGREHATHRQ

Nc1nc2c(ncn2COCCO)c(=O)[nH]1 [Acyclovir]
reduction of healing time / duration of cold sores [1]: up to ½

CC1=CCC[C@]2(C)CC[C@@H](C(C)(C)O)C[C@@H]12 [α-eudesmol]
inhibition of P/Q-type Ca2+ channel [2]: potently inhibits | inhibition of neurogenic inflammation [3]: potently inhibits

C=C1CCC[C@]2(C)CC[C@@H](C(C)(C)O)C[C@@H]12 [β-eudesmol]
neurite extension ([4]; 100 and 150 μM): significantly induced neurite extension | [3H]thymidine incorporation ([4]; at the highest concentration (150 μM)): suppression | inhibition of Na+,K+-ATPase activity [5]: most strongly | angiogenesis in subcutaneously implanted Matrigel plugs and in adjuvant-induced granuloma [6]: significantly inhibited | block of nicotinic ACh receptor channel [7]: blocked the nicotinic ACh receptor channel in both the open and closed conformations | desensitization of the nicotinic ACh receptor [7]: accelerated the desensitization | HUVEC migration stimulated by bFGF [8]: inhibited | tube formation by HUVEC in Matrigel [8]: inhibited | proliferation ([8]; 50-100 microM): inhibited | phosphorylation of ERK ½ induced by bFGF or vascular endothelial growth factor [9]: blocked | proliferation [10]: inhibited

santalol
decrease of papilloma incidence [11]: 67% | decrease of papilloma multiplicity [11]: 96% | decrease of TPA-induced ODC activity [12]: 70%
